Key:
[1] = target: T1, K88 (E. coli); F4ac (K88ac) fimbriae, MS428(pK88-AC) (Escherichia coli, UniProt P14190); assay: whole-cell SPR, Biacore T200, C1 chip, single-cycle kinetics; format: cell-based; conditions: fimbriae on immobilized whole cells; MS428 reference cell
T1 construct: gene faeG; native F4ac fimbriae on whole cells of fim-negative E. coli MS428, plasmid pK88-AC with F4ac gene cluster
Description: whole-cell SPR, Biacore T200, C1 chip, single-cycle kinetics on K88 (E. coli); F4ac (K88ac) fimbriae, MS428(pK88-AC)

[2] = target: T2, FimH^LD (purified FimH lectin-binding domain) (Escherichia coli, UniProt P08191); assay: SPR, CM5 chip, immobilized protein; conditions: glycans 1.6 nM to 1 μM
T2 construct: purified as previously described
T2 sequence (P08191 22-179): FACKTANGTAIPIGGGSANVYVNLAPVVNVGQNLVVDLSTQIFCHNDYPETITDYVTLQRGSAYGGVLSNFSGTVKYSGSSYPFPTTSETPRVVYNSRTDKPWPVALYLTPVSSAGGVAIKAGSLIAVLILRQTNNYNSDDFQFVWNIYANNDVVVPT
Description: SPR, CM5 chip, immobilized protein on FimH^LD (purified FimH lectin-binding domain)

[3] = target: T3, FimH (E. coli); type 1 fimbriae, MS428(pPKL4) (Escherichia coli, UniProt P08191); assay: whole-cell SPR, Biacore T200, C1 chip, single-cycle kinetics; format: cell-based; conditions: fimbriae on immobilized whole cells; MS428 reference cell
T3 construct: with Type-1 fimbrial protein, A chain; Protein FimF; Protein FimG
T3 sequence (P08191 22-300): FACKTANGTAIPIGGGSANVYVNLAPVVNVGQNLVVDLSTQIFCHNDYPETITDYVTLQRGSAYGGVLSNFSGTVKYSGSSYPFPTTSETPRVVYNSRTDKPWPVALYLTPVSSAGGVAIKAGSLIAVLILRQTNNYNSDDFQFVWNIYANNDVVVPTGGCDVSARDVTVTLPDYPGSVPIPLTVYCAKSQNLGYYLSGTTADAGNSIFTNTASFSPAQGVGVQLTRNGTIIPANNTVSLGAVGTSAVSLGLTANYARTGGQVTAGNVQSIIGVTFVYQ
T3 sequence (P04128 24-182, further chain): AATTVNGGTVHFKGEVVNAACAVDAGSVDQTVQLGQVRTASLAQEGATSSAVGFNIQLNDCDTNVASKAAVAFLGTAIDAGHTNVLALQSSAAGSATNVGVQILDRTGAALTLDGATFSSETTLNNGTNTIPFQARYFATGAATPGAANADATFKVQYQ
Description: whole-cell SPR, Biacore T200, C1 chip, single-cycle kinetics on FimH (E. coli); type 1 fimbriae, MS428(pPKL4)

T1 sequence (P14190 22-283 limits assumed): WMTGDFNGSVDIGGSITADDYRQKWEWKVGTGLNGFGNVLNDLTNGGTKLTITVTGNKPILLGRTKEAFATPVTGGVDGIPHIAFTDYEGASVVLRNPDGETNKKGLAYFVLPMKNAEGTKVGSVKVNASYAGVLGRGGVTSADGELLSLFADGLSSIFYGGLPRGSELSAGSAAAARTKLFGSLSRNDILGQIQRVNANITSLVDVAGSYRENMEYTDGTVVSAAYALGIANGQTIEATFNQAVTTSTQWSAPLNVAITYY

Compound | Disassociation constant^a: / K88 (E. coli) [1] | Disassociation constant^a: / FimH (protein) [2] | Disassociation constant^a: / FimH (E. coli) [3]
CC(=O)N[C@H]1[C@H](O[C@@H]2[C@H](O)[C@@H](O)[C@H](O[C@H]3[C@H](O)[C@@H](O)C(O)O[C@@H]3CO)O[C@@H]2CO)O[C@H](CO)[C@H](O)[C@@H]1O[C@@H]1O[C@H](CO)[C@H](O)[C@H](O)[C@H]1O (stereo partly drawn) [1F, AsialoGM1] | 11.02 ± 3.9 µM |  | 
OCC1OC(OCC2OC(OCC3OC(O)C(O)C(OC4OC(CO)C(O)C(O)C4O)C3O)C(O)C(OC3OC(CO)C(O)C(O)C3O)C2O)C(O)C(O)C1O (stereo not drawn) [Man5] |  | 607 ± 142 nM | 2.0 ± 0.842 µM
Man5NAc |  | 25.9 ± 8.9 nM | 0.0274 ± 0.0168 µM
OC[C@H]1O[C@H](O[C@H]2[C@@H](O)[C@@H](CO)OC(O)[C@@H]2O)[C@H](O)[C@@H](O)[C@H]1O (stereo partly drawn) [Galα1-3Gal] | 0.1603 ± 0.03 µM |  | 

From paper PMC8545135, “Discovery of Bacterial Fimbria–Glycan Interactions Using Whole-Cell Recombinant Escherichia coli Expression” (mBio, 2021)
